Assay [1] has as its target T1, Frizzled-7 (Homo sapiens, UniProt O75084). It counts as cell-based. As to conditions: cho.
Assay [2] concerns the target T1, Frizzled-7. In words: biochemical. To be noted: read-out: Kd. It counts as cell-based, CHO.
For assay [3], the target named is T1, Frizzled-7. To be noted: CHO.
Description: Binding affinity to recombinant human Frizzled-7 (Gln33 to Leu185 residues)/human IgG1 chimeric protein expressed in CHO cells assessed as association rate constant by SPR assay

The values below come from ChEMBL document CHEMBL4373723 (J Med Chem, 2019).

Bridge positions count the residues as written; N and C are the ends. Square brackets hold non-standard residues; d marks the D form. Peptide text beside a SMILES is read from it. I, II: the chains in the order shown. Phe(3-Cl) = N[C@@H](Cc1cccc(Cl)c1)C(=O)O; Phe(4-Cl) = N[C@@H](Cc1ccc(Cl)cc1)C(=O)O; Nva(3-Et) = CCC(CC)[C@H](N)C(=O)O; hLeu = CC(C)CC[C@H](N)C(=O)O; Nle = CCCC[C@H](N)C(=O)O

In the case of `CCC(CC)[C@H](NC(=O)[C@H](CC(=O)O)NC(=O)[C@H](CC(=O)O)NC(=O)[C@H](CO)NC(C)=O)C(=O)N[C@@H](CCC(=O)O)C(=O)N[C@@H](Cc1ccccc1)C(=O)N[C@@H](Cc1c[nH]c2ccccc12)C(=O)N[C@@H](CSSC[C@H](NC(=O)[C@H](Cc1c[nH]c2ccccc12)NC(=O)[C@H](Cc1ccccc1)NC(=O)[C@H](CCC(=O)O)NC(=O)[C@@H](NC(=O)[C@H](CC(=O)O)NC(=O)[C@H](CC(=O)O)NC(=O)[C@H](CO)NC(C)=O)C(CC)CC)C(=O)N[C@@H](Cc1cnc[nH]1)C(=O)N[C@H](C(=O)N[C@@H](CCSC)C(=O)N[C@@H](Cc1ccc(O)cc1)C(N)=O)C(C)C)C(=O)N[C@@H](Cc1cnc[nH]1)C(=O)N[C@H](C(=O)N[C@@H](CCSC)C(=O)N[C@@H](Cc1ccc(O)cc1)C(N)=O)C(C)C` (I: Ac-SDD[Nva(3-Et)]EFWCHVMY-NH2 / II: Ac-SDD[Nva(3-Et)]EFWCHVMY-NH2; disulfide I:8-II:8), the values for the Kd on Frizzled-7 [1] and on Frizzled-7 [2] were 29.2 ×10⁻³ /s and 3.9 nM, respectively. This compound showed a Ka on Frizzled-7 [3] of 73.6 ×10⁵ /M/s.

`CSCC[C@H](NC(=O)[C@@H](NC(=O)[C@H](Cc1cnc[nH]1)NC(=O)[C@H](CSSC[C@H](NC(=O)[C@H](Cc1c[nH]c2ccccc12)NC(=O)[C@H](Cc1ccc(Cl)cc1)NC(=O)[C@H](CCC(=O)O)NC(=O)[C@H](CC(C)C)NC(=O)[C@H](CC(=O)O)NC(=O)[C@H](CC(=O)O)NC(=O)[C@H](CO)NC(C)=O)C(=O)N[C@@H](Cc1cnc[nH]1)C(=O)N[C@H](C(=O)N[C@@H](CCSC)C(=O)N[C@@H](Cc1ccc(O)cc1)C(N)=O)C(C)C)NC(=O)[C@H](Cc1c[nH]c2ccccc12)NC(=O)[C@H](Cc1ccc(Cl)cc1)NC(=O)[C@H](CCC(=O)O)NC(=O)[C@H](CC(C)C)NC(=O)[C@H](CC(=O)O)NC(=O)[C@H](CC(=O)O)NC(=O)[C@H](CO)NC(C)=O)C(C)C)C(=O)N[C@@H](Cc1ccc(O)cc1)C(N)=O` (I: Ac-SDDLE[Phe(4-Cl)]WCHVMY-NH2 / II: Ac-SDDLE[Phe(4-Cl)]WCHVMY-NH2; disulfide I:8-II:8): the Kd amounted to 1.71 ×10⁻³ /s at Frizzled-7 [1] and 1.04 nM on Frizzled-7 [2]. Further, at Frizzled-7 [3], the Ka came to 16.5 ×10⁵ /M/s.

As to `CSCC[C@H](NC(=O)[C@@H](CC1CCCC1)NC(=O)[C@H](Cc1cnc[nH]1)NC(=O)[C@H](CSSC[C@H](NC(=O)[C@H](Cc1c[nH]c2ccccc12)NC(=O)[C@H](Cc1ccccc1)NC(=O)[C@H](CCC(=O)O)NC(=O)[C@H](CC(C)C)NC(=O)[C@H](CC(=O)O)NC(=O)[C@H](CC(=O)O)NC(=O)[C@H](CO)NC(C)=O)C(=O)N[C@@H](Cc1cnc[nH]1)C(=O)N[C@H](CC1CCCC1)C(=O)N[C@@H](CCSC)C(=O)N[C@@H](Cc1ccc(O)cc1)C(N)=O)NC(=O)[C@H](Cc1c[nH]c2ccccc12)NC(=O)[C@H](Cc1ccccc1)NC(=O)[C@H](CCC(=O)O)NC(=O)[C@H](CC(C)C)NC(=O)[C@H](CC(=O)O)NC(=O)[C@H](CC(=O)O)NC(=O)[C@H](CO)NC(C)=O)C(=O)N[C@@H](Cc1ccc(O)cc1)C(N)=O`, the values for the Kd on Frizzled-7 [1] and at Frizzled-7 [2] (cho) were 44.1 ×10⁻³ /s and 14.5 nM, respectively. On Frizzled-7 [3], the Ka amounted to 30.4 ×10⁵ /M/s.

With `CSCC[C@H](NC(=O)[C@H](CC(C)C)NC(=O)[C@H](Cc1cnc[nH]1)NC(=O)[C@H](CSSC[C@H](NC(=O)[C@H](Cc1c[nH]c2ccccc12)NC(=O)[C@H](Cc1ccccc1)NC(=O)[C@H](CCC(=O)O)NC(=O)[C@H](CC(C)C)NC(=O)[C@H](CC(=O)O)NC(=O)[C@H](CC(=O)O)NC(=O)[C@H](CO)NC(C)=O)C(=O)N[C@@H](Cc1cnc[nH]1)C(=O)N[C@@H](CC(C)C)C(=O)N[C@@H](CCSC)C(=O)N[C@@H](Cc1ccc(O)cc1)C(N)=O)NC(=O)[C@H](Cc1c[nH]c2ccccc12)NC(=O)[C@H](Cc1ccccc1)NC(=O)[C@H](CCC(=O)O)NC(=O)[C@H](CC(C)C)NC(=O)[C@H](CC(=O)O)NC(=O)[C@H](CC(=O)O)NC(=O)[C@H](CO)NC(C)=O)C(=O)N[C@@H](Cc1ccc(O)cc1)C(N)=O` (I: Ac-SDDLEFWCHLMY-NH2 / II: Ac-SDDLEFWCHLMY-NH2; disulfide I:8-II:8), the Kd at Frizzled-7 [1] was 1.9 ×10⁻³ /s; on Frizzled-7 [2], 0.28 nM. Besides, the Ka at Frizzled-7 [3] is 67.2 ×10⁵ /M/s.

`CC[C@H](C)[C@H](NC(=O)[C@H](Cc1cnc[nH]1)NC(=O)[C@H](CSSC[C@H](NC(=O)[C@H](Cc1c[nH]c2ccccc12)NC(=O)[C@H](Cc1cccc(Cl)c1)NC(=O)[C@H](CCC(=O)O)NC(=O)[C@H](CC(C)C)NC(=O)[C@H](CC(=O)O)NC(=O)[C@H](CC(=O)O)NC(=O)[C@H](CO)NC(C)=O)C(=O)N[C@@H](Cc1cnc[nH]1)C(=O)N[C@H](C(=O)N[C@@H](CCSC)C(=O)N[C@@H](Cc1ccc(O)cc1)C(N)=O)[C@@H](C)CC)NC(=O)[C@H](Cc1c[nH]c2ccccc12)NC(=O)[C@H](Cc1cccc(Cl)c1)NC(=O)[C@H](CCC(=O)O)NC(=O)[C@H](CC(C)C)NC(=O)[C@H](CC(=O)O)NC(=O)[C@H](CC(=O)O)NC(=O)[C@H](CO)NC(C)=O)C(=O)N[C@@H](CCSC)C(=O)N[C@@H](Cc1ccc(O)cc1)C(N)=O` (I: Ac-SDDLE[Phe(3-Cl)]WCHIMY-NH2 / II: Ac-SDDLE[Phe(3-Cl)]WCHIMY-NH2; disulfide I:8-II:8): the values for the Kd on Frizzled-7 [1] and on Frizzled-7 [2] were 0.57 ×10⁻³ /s and 0.083 nM, respectively. For the same compound, on Frizzled-7 [3], the Ka was 68.4 ×10⁵ /M/s.

Regarding `CSCC[C@H](NC(=O)[C@@H](NC(=O)[C@H](Cc1cnc[nH]1)NC(=O)[C@H](CSSC[C@H](NC(=O)[C@H](Cc1c[nH]c2ccccc12)NC(=O)[C@H](CC(C)C)NC(=O)[C@H](CCC(=O)O)NC(=O)[C@H](CC(C)C)NC(=O)[C@H](CC(=O)O)NC(=O)[C@H](CC(=O)O)NC(=O)[C@H](CO)NC(C)=O)C(=O)N[C@@H](Cc1cnc[nH]1)C(=O)N[C@H](C(=O)N[C@@H](CCSC)C(=O)N[C@@H](Cc1ccc(O)cc1)C(N)=O)C(C)C)NC(=O)[C@H](Cc1c[nH]c2ccccc12)NC(=O)[C@H](CC(C)C)NC(=O)[C@H](CCC(=O)O)NC(=O)[C@H](CC(C)C)NC(=O)[C@H](CC(=O)O)NC(=O)[C@H](CC(=O)O)NC(=O)[C@H](CO)NC(C)=O)C(C)C)C(=O)N[C@@H](Cc1ccc(O)cc1)C(N)=O` (I: Ac-SDDLELWCHVMY-NH2 / II: Ac-SDDLELWCHVMY-NH2; disulfide I:8-II:8), the values for the Kd at Frizzled-7 [1] and on Frizzled-7 [2] were 0.6 ×10⁻³ /s and 0.079 nM, respectively. Besides, the Ka on Frizzled-7 [3] amounted to 76.5 ×10⁵ /M/s.

For `CCCC[C@H](NC(=O)[C@H](CC(=O)O)NC(=O)[C@H](CC(=O)O)NC(=O)[C@H](CO)NC(C)=O)C(=O)N[C@@H](CCC(=O)O)C(=O)N[C@@H](Cc1ccccc1)C(=O)N[C@@H](Cc1c[nH]c2ccccc12)C(=O)N[C@@H](CSSC[C@H](NC(=O)[C@H](Cc1c[nH]c2ccccc12)NC(=O)[C@H](Cc1ccccc1)NC(=O)[C@H](CCC(=O)O)NC(=O)[C@H](CCCC)NC(=O)[C@H](CC(=O)O)NC(=O)[C@H](CC(=O)O)NC(=O)[C@H](CO)NC(C)=O)C(=O)N[C@@H](Cc1cnc[nH]1)C(=O)N[C@H](C(=O)N[C@@H](CCSC)C(=O)N[C@@H](Cc1ccc(O)cc1)C(N)=O)C(C)C)C(=O)N[C@@H](Cc1cnc[nH]1)C(=O)N[C@H](C(=O)N[C@@H](CCSC)C(=O)N[C@@H](Cc1ccc(O)cc1)C(N)=O)C(C)C` (I: Ac-SDD[Nle]EFWCHVMY-NH2 / II: Ac-SDD[Nle]EFWCHVMY-NH2; disulfide I:8-II:8), the Kd at Frizzled-7 [1] was determined as 23.1 ×10⁻³ /s; at Frizzled-7 [2], 5.4 nM. Also, the Ka at Frizzled-7 [3] amounted to 42.8 ×10⁵ /M/s.

For `CSCC[C@H](NC(=O)[C@@H](NC(=O)[C@H](Cc1cnc[nH]1)NC(=O)[C@H](CSSC[C@H](NC(=O)[C@H](Cc1c[nH]c2ccccc12)NC(=O)[C@H](Cc1ccccc1)NC(=O)[C@H](CCC(=O)O)NC(=O)[C@H](CCC(C)C)NC(=O)[C@H](CC(=O)O)NC(=O)[C@H](CC(=O)O)NC(=O)[C@H](CO)NC(C)=O)C(=O)N[C@@H](Cc1cnc[nH]1)C(=O)N[C@H](C(=O)N[C@@H](CCSC)C(=O)N[C@@H](Cc1ccc(O)cc1)C(N)=O)C(C)C)NC(=O)[C@H](Cc1c[nH]c2ccccc12)NC(=O)[C@H](Cc1ccccc1)NC(=O)[C@H](CCC(=O)O)NC(=O)[C@H](CCC(C)C)NC(=O)[C@H](CC(=O)O)NC(=O)[C@H](CC(=O)O)NC(=O)[C@H](CO)NC(C)=O)C(C)C)C(=O)N[C@@H](Cc1ccc(O)cc1)C(N)=O` (I: Ac-SDD[hLeu]EFWCHVMY-NH2 / II: Ac-SDD[hLeu]EFWCHVMY-NH2; disulfide I:8-II:8), the results for the Kd at Frizzled-7 [1] and at Frizzled-7 [2] were 123.5 ×10⁻³ /s and 115 nM, respectively. The compound also yielded a Ka at Frizzled-7 [3] of 10.9 ×10⁵ /M/s.

Regarding `CSCC[C@H](NC(=O)[C@@H](NC(=O)[C@H](Cc1cnc[nH]1)NC(=O)[C@H](CSSC[C@H](NC(=O)[C@H](Cc1c[nH]c2ccccc12)NC(=O)[C@H](Cc1ccccc1)NC(=O)[C@H](CCC(=O)O)NC(=O)[C@H](CC(C)C)NC(=O)[C@H](CC(=O)O)NC(=O)[C@H](CC(=O)O)NC(=O)[C@H](CO)NC(C)=O)C(=O)N[C@@H](Cc1cnc[nH]1)C(=O)N[C@H](C(=O)N[C@@H](CCSC)C(=O)N[C@@H](Cc1ccc(Cl)cc1)C(N)=O)C(C)C)NC(=O)[C@H](Cc1c[nH]c2ccccc12)NC(=O)[C@H](Cc1ccccc1)NC(=O)[C@H](CCC(=O)O)NC(=O)[C@H](CC(C)C)NC(=O)[C@H](CC(=O)O)NC(=O)[C@H](CC(=O)O)NC(=O)[C@H](CO)NC(C)=O)C(C)C)C(=O)N[C@@H](Cc1ccc(Cl)cc1)C(N)=O` (I: Ac-SDDLEFWCHVM[Phe(4-Cl)]-NH2 / II: Ac-SDDLEFWCHVM[Phe(4-Cl)]-NH2; disulfide I:8-II:8), the Kd worked out at 0.82 ×10⁻³ /s on Frizzled-7 [1] and 0.88 nM at Frizzled-7 [2]. At Frizzled-7 [3], this compound showed a Ka of 9.3 ×10⁵ /M/s.

Regarding `CSCC[C@H](NC(=O)[C@@H](NC(=O)[C@H](Cc1cnc[nH]1)NC(=O)[C@H](CSSC[C@H](NC(=O)[C@H](Cc1c[nH]c2ccccc12)NC(=O)[C@H](Cc1ccccc1)NC(=O)[C@H](CCCCN)NC(=O)[C@H](CC(C)C)NC(=O)[C@H](CC(=O)O)NC(=O)[C@H](CC(=O)O)NC(=O)[C@H](CO)NC(C)=O)C(=O)N[C@@H](Cc1cnc[nH]1)C(=O)N[C@H](C(=O)N[C@@H](CCSC)C(=O)N[C@@H](Cc1ccc(O)cc1)C(N)=O)C(C)C)NC(=O)[C@H](Cc1c[nH]c2ccccc12)NC(=O)[C@H](Cc1ccccc1)NC(=O)[C@H](CCCCN)NC(=O)[C@H](CC(C)C)NC(=O)[C@H](CC(=O)O)NC(=O)[C@H](CC(=O)O)NC(=O)[C@H](CO)NC(C)=O)C(C)C)C(=O)N[C@@H](Cc1ccc(O)cc1)C(N)=O` (I: Ac-SDDLKFWCHVMY-NH2 / II: Ac-SDDLKFWCHVMY-NH2; disulfide I:8-II:8), the Kd is 1.33 ×10⁻³ /s at Frizzled-7 [1] and 0.157 nM on Frizzled-7 [2]. The Ka on Frizzled-7 [3] worked out at 85.6 ×10⁵ /M/s.
